Test results taken from paper PMC5458547, “Discovery of first-in-class reversible dual small molecule inhibitors against G9a and DNMTs in hematological malignancies” (Nature Communications, 2017).
Read-outs that look alike come from different tables or passages of the source.

Experiments:
SU-DHL-7 = experiment: Cell proliferation assay (MTS); assay type: cell-based; conditions: Homo sapiens; GC-DLBCL, 48 h
HT = experiment: Cell proliferation assay (MTS); assay type: cell-based; conditions: Homo sapiens, GC-DLBCL, 48 h
RIVA = experiment: Cell proliferation assay (MTS); assay type: cell-based; conditions: Homo sapiens; ABC-DLBCL, 48 h
DB = experiment: Cell proliferation assay (MTS); assay type: cell-based; conditions: Homo sapiens, GC-DLBCL, 48 h
BRD1 = biological target: T1, BRD1 (Homo sapiens, UniProt O95696); experiment: Epigenetics selectivity panel (BPS Bioscience); assay type: binding
T1 construct: purchased DiscoverX KINOMEscan (kinases); BPS Bioscience (epigenetic targets)
T1 sequence (O95696 whole entry): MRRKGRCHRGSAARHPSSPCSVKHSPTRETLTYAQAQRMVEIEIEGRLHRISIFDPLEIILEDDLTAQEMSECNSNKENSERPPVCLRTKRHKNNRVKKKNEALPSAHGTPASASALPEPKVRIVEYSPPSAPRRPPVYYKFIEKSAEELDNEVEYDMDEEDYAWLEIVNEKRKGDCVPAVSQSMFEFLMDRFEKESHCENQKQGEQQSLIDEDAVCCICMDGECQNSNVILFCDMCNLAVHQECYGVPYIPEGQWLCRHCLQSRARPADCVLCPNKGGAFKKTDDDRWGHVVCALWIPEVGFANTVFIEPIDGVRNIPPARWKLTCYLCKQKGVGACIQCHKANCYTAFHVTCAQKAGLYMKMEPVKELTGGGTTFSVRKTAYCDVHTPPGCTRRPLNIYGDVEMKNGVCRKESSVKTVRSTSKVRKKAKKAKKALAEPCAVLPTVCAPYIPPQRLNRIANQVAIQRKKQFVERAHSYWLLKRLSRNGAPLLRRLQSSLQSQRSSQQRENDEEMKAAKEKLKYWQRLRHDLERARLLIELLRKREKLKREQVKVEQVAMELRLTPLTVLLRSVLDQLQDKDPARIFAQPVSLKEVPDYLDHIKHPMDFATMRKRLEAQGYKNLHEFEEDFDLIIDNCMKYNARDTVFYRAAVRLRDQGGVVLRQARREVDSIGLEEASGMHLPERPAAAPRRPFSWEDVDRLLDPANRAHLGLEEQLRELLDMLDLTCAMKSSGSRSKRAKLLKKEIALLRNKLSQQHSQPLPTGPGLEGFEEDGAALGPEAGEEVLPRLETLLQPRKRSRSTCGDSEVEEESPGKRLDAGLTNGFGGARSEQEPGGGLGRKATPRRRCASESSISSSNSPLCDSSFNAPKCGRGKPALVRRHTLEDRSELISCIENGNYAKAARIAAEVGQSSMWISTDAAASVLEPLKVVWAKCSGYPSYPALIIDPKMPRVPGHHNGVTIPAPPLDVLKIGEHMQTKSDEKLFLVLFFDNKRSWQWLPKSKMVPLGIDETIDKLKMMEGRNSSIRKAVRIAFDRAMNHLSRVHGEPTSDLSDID

OCI-Ly1 = experiment: Cell proliferation assay (MTS); assay type: cell-based; conditions: Homo sapiens, GC-DLBCL, 48 h
Mia Paca-2 = experiment: Cell proliferation assay (MTS); assay type: cell-based; conditions: Homo sapiens, Pancreas
CEMO-1 cells = experiment: ALL CEMO-1 xenograft survival; assay type: in vivo, mice; conditions: 1 mg/kg i.v. daily for 28 days
Procedure: Statistical results were calculated using the statistical software medcalc.
270 nM for MV4-11 cell line and 200 and 400 nM for OCI-Ly10). Extracellular HMGB1 from 48 h cell culture supernatants was quantified by means of the HMGB1 ELISA Kit II (Shino Test Corp.), following the manufacturer's instructions.
All animal studies had previous approval from the Animal Care and Ethics Committee of the University of Navarra, whereas experiments that used patient samples were approved by the Human Research Ethics Committees of University of Navarra.
The human ALL CEMO-1 xenograft mice model was generated by intravenously (i.v.) injection of 10x10^6 cells diluted in 100 µL of saline solution in the tail vein of a 6-8-week-old female BALB/cA- Rag2-/-γc-/- mice (n=12). Three days after injection, antitumor treatment was started intravenously in 6 mice. 1 mg/kg […]
The control group (n=6) received only
The mice weight was controlled and stable during the treatment.
Statistical results were calculated using the statistical software medcalc. […]
consecutive days. […] Statistical results were calculated using the statistical software medcalc. […]
The control group (n=6) received only saline solution. […] Statistical results were calculated using the statistical software medcalc. […]
washout period, hematological and liver parameters were measured. […]
washout period hematological and liver parameters were measured. […]

BxPC3 = experiment: Cell proliferation assay (MTS); assay type: cell-based; conditions: Homo sapiens, BXPC-3; Pancreas
H209 = experiment: Cell proliferation assay (MTS); assay type: cell-based; conditions: Homo sapiens, NCI-H209; SCLC
LAL-CUN-13 = experiment: Cell proliferation assay (MTS); assay type: cell-based; conditions: Homo sapiens; ALL, 48 h
OCI-Ly7 = experiment: Cell proliferation assay (MTS); assay type: cell-based; conditions: Homo sapiens, GC-DLBCL, 48 h
SU-DHL-8 = experiment: Cell proliferation assay (MTS); assay type: cell-based; conditions: Homo sapiens, ABC-DLBCL, 48 h
NP18 = experiment: Cell proliferation assay (MTS); assay type: cell-based; conditions: Homo sapiens; Pancreas
MD-901 = experiment: Cell proliferation assay (MTS); assay type: cell-based; conditions: Homo sapiens; ABC-DLBCL, 48 h
OCI-Ly10 = experiment: Cell proliferation assay (MTS); assay type: cell-based, human; conditions: ABC-DLBCL, 48 h, read-out: GI50

SMILES: COc1cc2c(NC3CCN(C)CC3)cc(-c3ccc(C)o3)nc2cc1OCCCN1CCCC1 [CM-272, 6-methoxy-2-(5-methyl-2-furyl)-N-(1-methyl-4-piperidyl)-7-(3-pyrrolidin-1-ylpropoxy)quinolin-4-amine]
- GI50 (SU-DHL-7): 0.636 µM
- GI50 (HT): 1.17 µM
- GI50 (RIVA): 1.57 µM
- GI50 (DB): 1.31 µM
- inhibition at 10 µM (BRD1): 0%
- GI50 (OCI-Ly1): 1.01 µM
- GI50 (Mia Paca-2): 0.206 µM
- survival (CEMO-1 cells): not able to prolong survival
- GI50 (BxPC3): 0.319 µM
- GI50 (H209): 1.15 µM
- GI50 (LAL-CUN-13): 1.4 µM
- GI50 (OCI-Ly7): 0.534 µM
- GI50 (SU-DHL-8): 1.95 µM
- GI50 (NP18): 0.577 µM
- GI50 (MD-901): 1.46 µM

SMILES: COc1cc2c(NCC3CCN(C)CC3)cc(-c3ccc(C)o3)nc2cc1OCCCN1CCCC1 [CM-579, 6-methoxy-2-(5-methyl-2-furyl)-N-[(1-methyl-4-piperidyl)methyl]-7-(3-pyrrolidin-1-ylpropoxy)quinolin-4-amine]
- GI50 (OCI-Ly10): < 0.031 µM
- GI50 (OCI-Ly10; Homo sapiens, OCI-Ly10, 48 h): 0.031 µM
